According to patent publication US7753966B2, “Hair dye stabilizer” (Takasago International Corporation, priority 2006, dated 2010):

Columns and labels:
[1] = Color tone of liquid hair dye base first preparation after storage, visually observed by three panelists; type: physicochemical; conditions: for Color tone: room temperature; for concentration at which a stabilization effect was shown: stored at room temperature for 2 weeks, judged from full-color photographs
Protocol: 40 g of a liquid hair dye base first preparation obtained by adding thioglycerol to a liquid hair dye base (Bigen Speedy Color, manufactured by Hoyu Co. Ltd.) in an amount adjusted as shown in Table 2 was placed in a 100 ml shampoo bottle and, after purging with nitrogen gas was performed, the bottle was capped and stored at room temperature.
Immediately after the passage of a given period of storage time of the shampoo bottle in which the above liquid hair dye base first preparation was placed, the color tone of the liquid hair dye base first preparation was visually observed by three panelists. The color tones in the table show the color tones of the results observed by the largest number of the panelists (the same shall apply hereinafter). Moreover, photographs of change in color tone of the hair dye base first preparation immediately after the passage of the above given period are shown in FIG. 1 to FIG. 3. […]

[2] = Stability test: remaining dye in liquid hair dye base first preparation by HPLC; type: physicochemical; conditions: finding stated in text
Protocol: 50 g of a liquid hair dye base (Bigen Speedy Color, manufactured by Hoyu Co. Ltd.) was weighed into a separable flask, and 0.1 g of thioglycerol was added. After the above separable flask was purged with nitrogen gas, the whole was stirred under a flow of nitrogen gas. After the resultant was divided into 40 g each in a 100 ml shampoo bottle and purging with nitrogen gas was performed, the bottle was capped, thereby a liquid hair dye base first preparation being prepared.
The liquid hair dye base first preparation of Example 1 was stored in a constant-temperature tank set at room temperature or 40° C. for 30 days. This first preparation was used as a sample.
About 4 g of an acetonitrile solution containing 500 ppm of benzonitrile was placed in a 10 mL sample vial and then the amount was accurately measured. About 0.2 g of the above sample was added thereto and the amount was accurately measured, followed by thorough mixing. The liquid in the sample vial was sucked by means of a syringe and was placed in a vial under filtration. Then, it was analyzed by means of a column ODS-80A in high performance liquid chromatography (HP 1100 manufactured by Hewlett-Packard Company) to measure amounts of remaining dyes in the sample.
A liquid hair dye base first preparation was prepared by performing the same operations as in Example 1 except that thioglycolic acid was used instead of thioglycerol. […]

[3] = 0.1 ppm (0.00001 %) added, 1 Day
[4] = 0.1 ppm (0.00001 %) added, 2 Weeks
[5] = 0.1 ppm (0.00001 %) added, 4 Days
[6] = 1 ppm (0.0001 %) added, 2 Weeks
[7] = 10 ppm (0.001 %) added, 2 Weeks
[8] = 100 ppm (0.01 %) added, 2 Weeks
[9] = 1000 ppm (0.1 %) added, 2 Weeks

Structure (SMILES)	Color tone ([1]; 0.0001 ppm added, 1 Day)	Color tone ([1]; 0.0001 ppm added, 2 Weeks)	Color tone ([1]; 0.0001 ppm added, 4 Days)	Color tone ([1]; 0.001 ppm added, 1 Day)	Color tone ([1]; 0.001 ppm added, 2 Weeks)	Color tone ([1]; 0.001 ppm added, 4 Days)	Color tone ([1]; 0.01 ppm added, 1 Day)	Color tone ([1]; 0.01 ppm added, 2 Weeks)	Color tone ([1]; 0.01 ppm added, 4 Days)	Color tone [1, 3]	Color tone [1, 4]	Color tone [1, 5]	Color tone ([1]; 1 ppm (0.0001 %) added, 1 Day)	Color tone [1, 6]	Color tone ([1]; 1 ppm (0.0001 %) added, 4 Days)	Color tone ([1]; 10 ppm (0.001 %) added, 1 Day)	Color tone [1, 7]	Color tone ([1]; 10 ppm (0.001 %) added, 4 Days)	Color tone ([1]; 100 ppm (0.01 %) added, 1 Day)	Color tone [1, 8]	also measured
CC(C)=CCC/C(C)=C/CS [thiogeraniol, (E)-3,7-dimethyl-2,6-octadien-1-thiol]	black	brown	black	black	brown	black	black	brown	black	black	brown	black	black	brown	black	black	brown	black	black	brown	Color tone ([1]; 100 ppm (0.01 %) added, 4 Days): black; Color tone ([1]; 1000 ppm (0.1 %) added, 1 Day): brown; Color tone [1, 9]: brown; Color tone ([1]; 1000 ppm (0.1 %) added, 4 Days): black; Color tone ([1]; 10000 ppm (1 %) added, 1 Day): orange; Color tone ([1]; 10000 ppm (1 %) added, 2 Weeks): orange; Color tone ([1]; 10000 ppm (1 %) added, 4 Days): orange; concentration at which a stabilization effect was shown [1]: ≤ 0.0001 ppm
OCCS [thioglycol, 2-mercaptoethanol]	black	brown	black	black	brown	black	black	brown	black	black	brown	black	black	brown	black	black	brown	black	black	brown	Color tone ([1]; 100 ppm (0.01 %) added, 4 Days): black; Color tone ([1]; 1000 ppm (0.1 %) added, 1 Day): brown; Color tone [1, 9]: orange; Color tone ([1]; 1000 ppm (0.1 %) added, 4 Days): orange; Color tone ([1]; 10000 ppm (1 %) added, 1 Day): orange; Color tone ([1]; 10000 ppm (1 %) added, 2 Weeks): orange; Color tone ([1]; 10000 ppm (1 %) added, 4 Days): orange; concentration at which a stabilization effect was shown [1]: ≤ 0.0001 ppm
O=C(O)CS [thioglycolic acid]																					effect on stability of p-nitro-o-phenylenediamine [2]: promotes the deterioration; effect on stability of resorcin [2]: promotes the deterioration
